Results from patent publication US4087421A, “Substituted benzodiazepines and method of use” (American Cyanamid Company, priority 1977, dated 1978).
Values joined by “and” are separate entries in the source; they are usually repeats but may differ in a detail not shown here. Equal values may be shown once.

Experiments:
[1] = Inhibition of tetrabenazine induced depression of exploratory behavior in mice; format: in vivo; details: for Number Responded/Number Treated: intraperitoneally or orally, 1 h before tetrabenazine 30 mg/kg
Description: Varying doses of the test compounds are administered intraperitoneally or orally to 5 mice one hour before the administration of tetrabenazine hexamate at an intraperitoneal dose of 30 mg/kg which is known to depress markedly the exploratory behavior of normal mice. Thirty minutes later the mice are tested for their exploratoy behavior. Individual mice are placed in the center of a horizontal disc. Inhibition of the depression induced by tetrabenazine is considered present if the mice perform one or more of the following actions within 10 seconds after being placed on the disc:
(1) Animals move to the edge of the disc and pear over the side.
(2) Animals move 180° in place.
(3) Animals display a head movement of 90° immediately followed by a head movement in the opposite direction of at least 45°.
Administration of the test compounds to additional groups of 5 mice is repeated, the numbers of individual animals showing an anti-depressant response (normal exploratory behavior) is recorded and the results are analyzed by the following scheme (statistically standardized; significant P = less than 0.05).
The results from several dose levels (acceptance in at least two sequential test procedures) are then used to establish the Range of Active Doses.

[2] = reduction of spontaneous motor activity (Animax Activity Counter); format: in vivo; details: Rattus norvegicus, 5 min; oral, rats, 5 minute period; read-out: MDD50 (effective dose that causes a 50% reduction in motor activity)
Description: A useful test for anti-psychotic activity consists of measuring the reduction of spontaneous motor activity in animals.
Groups of 4 rats are treated orally with the test compound dissolved or suspended in starch vehicle at the maximum tolerated dose. At the estimated time of peak effect, the animals are placed singly into an Animax Activity Counter and the activity of each rat is recorded over a 5 minute period. The activity counts are compared to historical or parallel control values to determine significant increased or decreased locomotor activity.

[3] = "writhing syndrome" test for analgesic activity (phenyl p-quinone); format: in vivo, male Swiss albino mice; details: control approximately 30 per pair, active if 18 or less
Description: This method is based upon the reduction of the number of writhes following the intraperitoneal injection of one mg./kg. of body weight of phenyl p-quinone in male Swiss albino mice weighing 15-25 g. The syndrome is characterized by intermittent contractions of the abdomen, twisting and turning of the trunk, and extension of the hind legs beginning 3 to 5 minutes after injection of the phenyl p-quinone. The test compounds are administered orally at the indicated dose to groups of 2 mice each, 30 minutes before injection of the phenyl p-quinone.

[4] = Discrete Trial Conditioned Avoidance Test; format: in vivo, male Long-Evans rats; details: Rattus norvegicus, read-out: ED50 (reduces avoidance response by 50% as compared to controls)
Description: In this test the compounds are administered orally to male Long-Evans rats in a universal starch vehicle. The rats have been pre-conditioned to make a 70% avoidance response. The rats are placed in individual cages and a warning tone is sounded every 20 seconds. Each rat has the opportunity to press a bar which, if done within 5 seconds, prevents an electric shock through the grid floor of the cage and is termed an avoidance response. Each rat is given 50 trials and a score of avoidance responses is kept. The drug is administered at various dose levels. […]

[5] = Prevention of reserpine-induced hypothermia in rats; format: in vivo; details: for ED50: Rattus norvegicus, oral, dose column in mg/kg, read-out: ED50 (95% C.L.)
Description: Groups of 5 rats were treated orally with graded doses of the test compounds. One hour later the animals were treated with reserpine (solubilized in propylene glycol and citric acid) at a dose of 5 mg/kg intraperitoneally. Rectal temperatures were measured using a YSI Telethermometer. Temperatures were recorded just prior to treatment, one hour later just prior to reserpine administration and at hourly intervals following reserpine administration for 5 hours. […]

[6] = Enhancement of yohimbine lethality in mice; format: in vivo; details: yohimbine 34 mg/kg
Description: The test compounds were administered intraperitoneally, at various dose levels, to groups of 10 mice. One hour later all mice received yohimbine at a dose (34 mg/kg) estimated to have a lethal effect in 4% of the mice. Deaths were recorded 18 to 24 hours later.

reversible ptosis test = format: in vivo; details: oral, rats
Description: A useful test for anti-psychotic activity consists of measuring ptosis in animals.
Ptosis is defined as closure of the palpebral aperture (eyelid) greater than 70%. The compounds to be tested were administered orally to groups of 10 rats each. Periodically after treatment the rats were gently placed on the cage top and examined for 90 seconds for signs of ptosis. This manipulation eliminates spontaneous ptosis. The rats were then dropped from a height of about 18 inches (exteroceptive stimulation) onto the cage top to test for reversibility of ptosis. Reversible ptosis is defined as less than 70% closure of the palpebral aperture for longer than one minute after the exteroceptive stimulation and is indicative of neuroleptic activity of the drug administered.

[7] = modified Randall and Selitto analgesic test, brewers yeast inflamed paw; format: in vivo, rats; details: 200 mg/Kg oral; two hours after yeast; active if T/C ≥ 1.37
Description: To determine analgesic activity, a modification of the method of Randall and Selitto [Arch. Int. […] This test measures the pain threshold of rats whose paws are made sensitive to pressure by the injection of 0.1 ml. of a 20% aqueous suspension of brewers yeast into the plantar surface of the left hind paw. Constantly increasing force (16 g/second) is applied to the swollen paw using an Analgesy Meter, Ugo Basile. The pressure is cut off at 250 g. of force when there is no response (sudden struggle or vocalization). […] Pressure-pain thresholds are always recorded two hours after administration of Brewers' yeast. Test compounds are administered at the same time as the yeast, at an oral dose of 200 mg/Kg. Ratios of treated (T)/control (C) reaction thresholds are calculated as estimates of analgesic efficacy (degree of analgesia obtainable).

SMILES: CN1CCN(C2=Nc3ccccc3N(C)c3cscc32)CC1 [4-Methyl-10-(4-methyl-1-piperazinyl)-4H-thieno[3,4-b][1,5]benzodiazepine]
- Number Responded/Number Treated ([1]; 0.78 mg/kg): 1/10
- Number Responded/Number Treated ([1]; 1.56 mg/kg): 3/10
- Number Responded/Number Treated ([1]; 3.13 mg/kg): 6/10
- Number Responded/Number Treated ([1]; 6.25 mg/kg): 6/10
- Number Responded/Number Treated ([1]; 12.5 mg/kg): 7/10
- Number Responded/Number Treated ([1]; 25.0 mg/kg): 8/10
- ED50 ([1]; Mus musculus, calculated by method of Finney, dose column in mg/kg, read-out: ED50 (95% C.L.)): 4.2 mg/kg
- ED50 [2]: 12 mg/kg
- No. of Writhes Per Pair ([3]; 50 mg/kg oral): 0
- ED50 ([4]; oral, male Long-Evans rats): 17 mg/kg
- Percent of Animals Showing > Two Standard Deviations in Rectal Temperature Over Control Means ([5]; 0.20 mg/kg oral, 2 hours after reserpine): 0%
- Percent of Animals Showing > Two Standard Deviations in Rectal Temperature Over Control Means ([5]; 0.20 mg/kg oral, 3 hours after reserpine): 0%
- Percent of Animals Showing > Two Standard Deviations in Rectal Temperature Over Control Means ([5]; 0.20 mg/kg oral, 4 hours after reserpine): 0%
- Percent of Animals Showing > Two Standard Deviations in Rectal Temperature Over Control Means ([5]; 0.20 mg/kg oral, 5 hours after reserpine): 0%
- Percent of Animals Showing > Two Standard Deviations in Rectal Temperature Over Control Means ([5]; 0.39 mg/kg oral, 2 hours after reserpine): 0%
- Percent of Animals Showing > Two Standard Deviations in Rectal Temperature Over Control Means ([5]; 0.39 mg/kg oral, 3 hours after reserpine): 0%
- Percent of Animals Showing > Two Standard Deviations in Rectal Temperature Over Control Means ([5]; 0.39 mg/kg oral, 4 hours after reserpine): 0%
- Percent of Animals Showing > Two Standard Deviations in Rectal Temperature Over Control Means ([5]; 0.39 mg/kg oral, 5 hours after reserpine): 0%
- Percent of Animals Showing > Two Standard Deviations in Rectal Temperature Over Control Means ([5]; 0.78 mg/kg oral, 2 hours after reserpine): 33%
- Percent of Animals Showing > Two Standard Deviations in Rectal Temperature Over Control Means ([5]; 0.78 mg/kg oral, 3 hours after reserpine): 7%
- Percent of Animals Showing > Two Standard Deviations in Rectal Temperature Over Control Means ([5]; 0.78 mg/kg oral, 4 hours after reserpine): 7%
- Percent of Animals Showing > Two Standard Deviations in Rectal Temperature Over Control Means ([5]; 0.78 mg/kg oral, 5 hours after reserpine): 27%
- Percent of Animals Showing > Two Standard Deviations in Rectal Temperature Over Control Means ([5]; 1.56 mg/kg oral, 2 hours after reserpine): 100%
- Percent of Animals Showing > Two Standard Deviations in Rectal Temperature Over Control Means ([5]; 1.56 mg/kg oral, 3 hours after reserpine): 40%
- Percent of Animals Showing > Two Standard Deviations in Rectal Temperature Over Control Means ([5]; 1.56 mg/kg oral, 4 hours after reserpine): 0%
- Percent of Animals Showing > Two Standard Deviations in Rectal Temperature Over Control Means ([5]; 1.56 mg/kg oral, 5 hours after reserpine): 60%
- Percent of Animals Showing > Two Standard Deviations in Rectal Temperature Over Control Means ([5]; 3.13 mg/kg oral, 2 hours after reserpine): 50%
- Percent of Animals Showing > Two Standard Deviations in Rectal Temperature Over Control Means ([5]; 3.13 mg/kg oral, 3 hours after reserpine): 30%
- Percent of Animals Showing > Two Standard Deviations in Rectal Temperature Over Control Means ([5]; 3.13 mg/kg oral, 4 hours after reserpine): 30%
- Percent of Animals Showing > Two Standard Deviations in Rectal Temperature Over Control Means ([5]; 3.13 mg/kg oral, 5 hours after reserpine): 20%
- Percent of Animals Showing > Two Standard Deviations in Rectal Temperature Over Control Means ([5]; 6.25 mg/kg oral, 2 hours after reserpine): 80%
- Percent of Animals Showing > Two Standard Deviations in Rectal Temperature Over Control Means ([5]; 6.25 mg/kg oral, 3 hours after reserpine): 80%
- Percent of Animals Showing > Two Standard Deviations in Rectal Temperature Over Control Means ([5]; 6.25 mg/kg oral, 4 hours after reserpine): 80%
- Percent of Animals Showing > Two Standard Deviations in Rectal Temperature Over Control Means ([5]; 6.25 mg/kg oral, 5 hours after reserpine): 0%
- Percent of Animals Showing > Two Standard Deviations in Rectal Temperature Over Control Means ([5]; 12.5 mg/kg oral, 2 hours after reserpine): 100%
- Percent of Animals Showing > Two Standard Deviations in Rectal Temperature Over Control Means ([5]; 12.5 mg/kg oral, 3 hours after reserpine): 100%
- Percent of Animals Showing > Two Standard Deviations in Rectal Temperature Over Control Means ([5]; 12.5 mg/kg oral, 4 hours after reserpine): 100%
- Percent of Animals Showing > Two Standard Deviations in Rectal Temperature Over Control Means ([5]; 12.5 mg/kg oral, 5 hours after reserpine): 20%
- ED50 ([5]; 2 hours after reserpine): 1.6 mg/kg
- ED50 ([5]; 3 hours after reserpine): 2.9 mg/kg
- ED50 ([5]; 4 hours after reserpine): 3.5 mg/kg
- Number Dead/Number Treated ([6]; 10 mg/kg intraperitoneal, 18 hours): 3/10
- Number Dead/Number Treated ([6]; 10 mg/kg intraperitoneal, 24 hours): 8.10
- Number Dead/Number Treated ([6]; 20 mg/kg intraperitoneal, 18 hours): 6/10
- Number Dead/Number Treated ([6]; 20 mg/kg intraperitoneal, 24 hours): 8/10
- Number Dead/Number Treated ([6]; 40 mg/kg intraperitoneal, 18 hours): 4/10
- Number Dead/Number Treated ([6]; 40 mg/kg intraperitoneal, 24 hours): 8/10

SMILES: CN1CCN(C2=Nc3ccc(Cl)cc3Nc3cscc32)CC1 [6-Chloro-10-(4-methyl-1-piperazinyl)-4H-thieno[3,4-b][1,5]benzodiazepine]
- ED50 (dose estimated to create reversible ptosis in 50% of the animals) (reversible ptosis test): 17 mg/kg
- ED50 [2]: 7.7 mg/kg
- No. of Writhes Per Pair ([3]; 6.25 mg/kg oral): 7 and 6

SMILES: CN1CCN(C2=Nc3cc(Cl)ccc3N(C)c3cscc32)CC1.[O-][Cl+3]([O-])([O-])O.[O-][Cl+3]([O-])([O-])O [7-Chloro-4-methyl-10-(4-methyl-1-piperazinyl)-4H-thieno[3,4-b][1,5]benzodiazepine diperchlorate]
- ED50 [2]: 25 mg/kg
- Ratio T/C (treated/control reaction thresholds) [7]: 1.55

SMILES: CN1CCN(C2=Nc3cc(Cl)ccc3Nc3cscc32)CC1.[O-][Cl+3]([O-])([O-])O.[O-][Cl+3]([O-])([O-])O [7-Chloro-10-(4-methyl-1-piperazinyl)-4H-thieno[3,4-b][1,5]benzodiazepine diperchlorate]
- ED50 (dose estimated to create reversible ptosis in 50% of the animals) (reversible ptosis test): 10 mg/kg
- ED50 [2]: 20 mg/kg
- No. of Writhes Per Pair ([3]; 1.6 mg/kg oral): 1 and 2

SMILES: CN(C)CCCN1c2ccccc2Sc2ccc(Cl)cc21 [Chlorpromazine, reference compound]
- ED50 ([4]; po): 9 mg/kg
